Measured values as given in patent publication US20200390755A1, “COMPOUND FOR TREATING NERVOUS SYSTEM DISEASES AND USE THEREOF” (SHAANXI MICOT TECHNOLOGY CO., LTD., priority 2018, published 2020).

Experiments:
[1] = test system: rats with permanent cerebral ischemia; assay: Cerebral infarction volume by TTC staining in rats with permanent cerebral ischemia; type: in vivo, SD rats; conditions: 20 mg/kg by gavage, after 7 days of ischemia
Experimental: SD rats, male, about 220-250 g, were provided by the Experimental Animal Center of Medical College of Xi'an Jiaotong University. Rats were randomly divided into groups of 14 animals/group. The experiment included a sham group, a model group, a positive control Edaravone group and test compound groups 1-5.12 hours before the operation, the rats were fasted and were free to drink water, and then used for the modeling method of middle cerebral artery occlusion with thread plug. The rats were fixed on a wooden board after anesthesia, the common carotid artery was ligated proximally, the external carotid artery was ligated distally, and the main internal carotid artery into skull was retained. A ligature line was reserved at the bifurcation of the internal carotid artery for temporarily clamping the distal end of the internal carotid artery using an arterial clip. A 3-0 nylon thread with a length of 5 cm and a spherical shape with a diameter of 0.3 mm at the tip was inserted into the common carotid artery through a small incision at the bifurcation. The arterial clamp was loosened, and the thread plug was slowly advanced to 18˜20 mm. When there was resistance, the progress of the thread was stopped. At this time, the nylon thread plug entered the middle artery and blocked the blood flow, and then the ischemic phase began. The skin was sutured. In the sham operation group, the same procedure was executed, except that no thread plug was inserted.
Administering was performed at 0 h, 3 h, 6 h and 12 h after ischemia, and then administering was performed once a day for 7 consecutive days. The test compound was prepared into a 4 mg/mL solution with 1% CMC-Na solution and administered by gavage. The edaravone group received an intravenous dose of 0.078 mg/kg.
3) Percentage of cerebral infarction volume after 7 days of ischemia: TTC staining was used to observe the infarct area.
The rats in each group were sacrificed by spinal dislocation […]. The brain tissue was quickly peeled off and placed in the refrigerator at −20° C. to freeze to an appropriate hardness to remove the olfactory bulb, cerebellum and low brain stem. Continuous coronary slices were performed at 1 mm intervals, to obtain a total of 5 slices. The slices were placed in 0.5% triphenyltetrazolium chloride (TTC) in phosphate buffer (pH=7.4) and incubated in a 37° C. incubator without light for 15 min, and then fixed in paraformaldehyde and observed (fixed time should be within 24 h). The normal brain tissue is rosy red, and infarcted brain tissue is pale. After taking the picture, the slice was scanned to save the image. The area of cerebral infarction and the total area of slices were calculated using Image J processing software.
Cerebral infarction volume (%)=(volume of the contralateral hemisphere of the operation−volume of the uninfarcted portion of the hemisphere of the occlusion)/volume of the contralateral hemisphere of the operation×100%
(2) Statistical analysis of data: SPSS18.0 statistical software was used for statistical analysis and the data of each group was expressed as the mean standard error (x±SEM). One-way ANOVA and multiple comparisons between groups were used to compare the averages of measurement data among multiple groups. Rank score test was used for behavioral grading data, and Kaplan-Meier method was used for mortality. P<0.05 was considered statistically significant.

Phospho-Akt S473 = assay: ELISA analysis of Phospho-Akt S473 in primary cortical neuron cells; type: cell-based, mouse; conditions: 500 nM, 10 min at 37° C.
Experimental: The primary cortical neuron cells were cultured in the same way as in Example 21, and after maturity, appropriate amount of freshly prepared culture medium was added until final volume in each well was 2 mL. The experiment included a blank control group (Vehicle), a positive control group BDNF (10 ng/mL), a control compound group (500 nM), and 6 test compound groups (500 nM). Three repeats were set for each dose. After incubating at 37° C. for 10 min, the culture solution was discarded and the cells were washed with pre-chilled PBS, and then 40 μL of pre-chilled lysate (RIPA buffer 10 mL and protease and phosphatase inhibitor 100 μL) was added to each well for lysis on ice for 30 min. After lysis, the cell was crushed by ultrasonic cell crusher, centrifuged at 14000 rpm for 20 min at 4° C. The supernatant was transferred to a new 1.5 mL centrifuge tube to extract protein. The p-Akt ELISA experiment quantitatively detected the intracellular p-Akt protein level.
A series of p-Akt standard solutions with different concentrations were prepared, and the absorbance value was measured to make a standard curve. Phospho-Akt1 (Ser473) sandwich ELISA kit was purchased from Cell Signaling Technology (catalog number 7160). The antibody was coated in a 96-well plate at 4° C. overnight and was washed. The coated plate was blocked with 2% bovine serum albumin (BSA), and after sufficient washing, 100 μL of sample diluent (supplied in the kit) was added to each well to dilute the extracted protein. The plate was incubated overnight at 4° C. After washing 4 times with 200 μL of washing buffer (supplied in the kit), 100 μL/well of detection antibody was added and the plate was incubated at 37° C. for 1 hour. After 4 washes, 100 μL of HRP-conjugated secondary antibody (supplied in the kit) was added and the plate was incubated at 37° C. for 30 minutes. After the final wash, 100 μL of TMB substrate was added to each well and the plate was incubated at 37° C. for 10 minutes. TMB was use as a substrate to detect the signal, since TMB can be oxidized to produce a blue solution. The reaction was stopped by adding 100 μL/well stop solution, and the test result can remain stable within one hour after the stop of the reaction. The value of each well at 450 nm and 650 nm was detected using a microplate reader. The optical density (OD) was determined by subtracting the reading at 650 nm (disturbance from the solution itself) from the reading at 450 nm. According to the OD value corresponding to the standard curve, the p-Akt concentration in each well was obtained.
the data of each group was expressed as mean standard error (x±SEM). The ratio of the detection results of each positive control group (BNDF), control compound group (the same control compound as in Example 21) and each test compound group to the blank control group was used as an indicator to compare the p-Akt test results of the positive control group, control compound group, and each test compound group. One-way ANOVA and LSD post-hoc test were used to compare the measurement data among multiple groups, and P<0.05 was considered statistically significant.

| Compound | Volume percentage of cerebral infarction [1] | Relative content of p-Akt protein (ELISA, ratio to blank control group) (Phospho-Akt S473) |
| --- | --- | --- |
| O=c1cc(-c2ccc(N3CCCCC3)cc2)oc2c(O)c(O)ccc12 [Example 1, 7,8-dihydroxy-2-(4-(piperidin-1-yl)phenyl)-4H-chromen-4-one] | 19.58 ± 9.56% | 212.00±2.122% |
| COc1ccc2c(=O)cc(-c3ccc(N4CCCCC4)cc3)oc2c1OC [Example 2, 7,8-dimethoxy-2-(4-(piperidin-1-yl)phenyl)-4H-chromen-4-one] | 19.93 ± 8.89% | 221.67±3.69% |
| CN(C)C1CCN(c2ccc(-c3cc(=O)c4ccc(O)c(O)c4o3)cc2)CC1 [Example 3, 2-(4-(4-(dimethylamino)piperidin-1-yl)phenyl)-7,8-dihydroxy-4H-chromen-4-one] | 20.93 ± 7.65% | 247.33±3.18% |
| CC1(C)CCN(c2ccc(-c3cc(=O)c4ccc(O)c(O)c4o3)cc2)CC1 [Example 4, 2-(4-(4,4-dimethylpiperidin-1-yl)phenyl)-7,8-dihydroxy-4H-chromen-4-one] | 21.33 ± 7.68% | 224.33±3.27% |
| CC1CC(C)CN(c2ccc(-c3cc(=O)c4ccc(O)c(O)c4o3)cc2)C1 (stereo not shown) [Example 5, 2-(4-(3,5-dimethylpiperidin-1-yl)phenyl)-7,8-dihydroxy-4H-chromen-4-one] | 20.50 ± 6.38% | 217.32±2.57% |
